Source: publication PMC3561686 (Basic & Clinical Pharmacology & Toxicology, 2012)
Read-outs that look alike come from different tables or passages of the source.

Assays:
[1] = for Cmax: human, in vivo, prasugrel alone session, dried blood spots, mean (S.D.); for AUC ratio (prasugrel + ritonavir versus prasugrel alone): AUC0–6 hr; for AUC ratio (prasugrel + ritonavir versus prasugrel alone) / Cmax ratio (prasugrel + ritonavir versus prasugrel alone): mean ratio
CYP2C9 = CYP2C9 (Homo sapiens, UniProt P11712); conditions: mean ratio
CYP2C19 = CYP2C19 (Homo sapiens, UniProt P33261); test: CYP2C19 phenotyping: omeprazole metabolic ratio in plasma; type: in vivo; conditions: mean ratio
CYP3A = conditions: cited from earlier work
human liver microsomes = conditions: cited from earlier work
[2] = read-out: expected Cmax; after a 100 mg dose; cited from earlier work

Chain of CYP2C19 (P33261 whole entry): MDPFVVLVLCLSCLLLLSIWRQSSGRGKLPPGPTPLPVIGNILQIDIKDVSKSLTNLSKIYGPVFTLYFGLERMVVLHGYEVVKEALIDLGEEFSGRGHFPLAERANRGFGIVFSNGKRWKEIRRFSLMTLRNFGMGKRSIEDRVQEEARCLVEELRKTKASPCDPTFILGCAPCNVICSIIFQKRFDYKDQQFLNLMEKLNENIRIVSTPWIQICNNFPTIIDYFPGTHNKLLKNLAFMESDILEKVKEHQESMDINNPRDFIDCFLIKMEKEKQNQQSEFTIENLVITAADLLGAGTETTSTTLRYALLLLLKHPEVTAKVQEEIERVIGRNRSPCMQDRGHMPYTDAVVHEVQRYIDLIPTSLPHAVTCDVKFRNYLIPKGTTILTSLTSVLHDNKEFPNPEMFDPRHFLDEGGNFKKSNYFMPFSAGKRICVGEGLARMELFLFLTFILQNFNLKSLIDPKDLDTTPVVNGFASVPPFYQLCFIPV
Chain of CYP2C9 (P11712 whole entry): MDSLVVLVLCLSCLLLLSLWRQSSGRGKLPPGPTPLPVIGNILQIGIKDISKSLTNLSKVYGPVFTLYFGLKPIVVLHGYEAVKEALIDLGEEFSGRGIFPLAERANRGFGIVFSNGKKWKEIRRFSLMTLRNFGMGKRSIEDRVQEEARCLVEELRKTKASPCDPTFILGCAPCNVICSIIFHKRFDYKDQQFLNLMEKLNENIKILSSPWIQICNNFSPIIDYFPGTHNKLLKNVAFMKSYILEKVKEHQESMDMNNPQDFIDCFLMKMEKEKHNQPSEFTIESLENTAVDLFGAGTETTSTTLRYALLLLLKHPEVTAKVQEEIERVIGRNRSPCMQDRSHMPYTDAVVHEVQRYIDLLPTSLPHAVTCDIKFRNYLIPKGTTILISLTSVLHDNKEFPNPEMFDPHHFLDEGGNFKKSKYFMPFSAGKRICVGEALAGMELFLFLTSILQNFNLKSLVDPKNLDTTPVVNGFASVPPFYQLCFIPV

Row | SMILES | Cmax [1] [ng/mL] | AUC ratio (prasugrel + ritonavir versus prasugrel alone) [1] | Cmax ratio (prasugrel + ritonavir versus prasugrel alone) [1] | also measured
1 | CC(NC(C)(C)C)C(=O)c1cccc(Cl)c1 (centres unmarked) [Bupropion, bupropion] | 20.9 | – | – | –
2 | CC(C(=O)O)c1ccc(-c2ccccc2)c(F)c1 (centres unmarked) [Flurbiprofen, flurbiprofen] | 1140 | 0.95 | 0.98 | Metabolic Ratio (OH flurbiprofen/flurbiprofen), ratio prasugrel + ritonavir versus prasugrel alone (CYP2C9): not affected
3 | Cc1ncc2n1-c1ccc(Cl)cc1C(c1ccccc1F)=NC2 [Midazolam, midazolam] | 0.17 | 26.5 | 6.1 | AUC ratio (prasugrel + ritonavir versus prasugrel alone) ([1]; listed as midazolam): 26; Cmax ratio (prasugrel + ritonavir versus prasugrel alone) ([1]; listed as midazolam): 6
4 | COc1ccc2[nH]c([S+]([O-])Cc3ncc(C)c(OC)c3C)nc2c1 (centres unmarked) [Omeprazole, omeprazole] | 35.6 | 1.25 | 1.54 | Metabolic Ratio (OH omeprazole/omeprazole), ratio prasugrel + ritonavir versus prasugrel alone (CYP2C19): not affected
5 | CC(=O)N1CCN(c2ccc(OCC3COC(Cn4ccnc4)(c4ccc(Cl)cc4Cl)O3)cc2)CC1 (centres unmarked) [ketoconazole] | – | – | – | Change in prasugrel AM formation or the inhibition of platelet aggregation when prasugrel was administered with the drug (CYP3A): no change
6 | CC(C)c1nc(CN(C)C(=O)N[C@H](C(=O)N[C@@H](Cc2ccccc2)C[C@H](O)[C@H](Cc2ccccc2)NC(=O)OCc2cncs2)C(C)C)cs1 [ritonavir] | – | – | – | Inhibition of prasugrel bioactivation (human liver microsomes): potent inhibitor; Cmax [2]: 1000 to 2000 nM
